Where two headings read alike, the source gives them in different places.
Assays:
Assay type in all cases: cell-based
[1] = test system: Suit-2; assay: In vitro cell viability assay (Cell Titer Glo), pancreatic cancer Suit-2; details: 72 h
Protocol: (§1) Breast cancer SUM159 was obtained from Asterand and grown according to supplier's recommendation. All other cell lines were obtained from ATCC and cultured in standard cell culture conditions with complete cell culture medium containing 10% FBS.
(§2) Cancer cells were seeded into optically clear tissue culture-treated black 96-well plates (for adherent cells) or low-attachment 96-well plates (for cancer stem cells) at 2,000-5000 cells/50 μL of media per well. The cells were treated with Wnt inhibitors at 0.1 to 10 μM for 72 h. Cell viability was measured by the Cell Titer Glo Assay from Promega.

[2] = test system: HT-29; assay: In vitro cell viability assay (Cell Titer Glo), colorectal cancer HT-29; details: Homo sapiens, 72 h
Protocol: as §1, §2
(§3) Table 4 below illustrates the effects of the disclosed compounds on cell viability of colorectal cancer cell lines.

[3] = test system: S2VP10; assay: In vitro cell viability assay (Cell Titer Glo), pancreatic cancer S2VP10; details: 72 h
Protocol: as §1, §2

[4] = test system: HCT116; assay: In vitro cell viability assay (Cell Titer Glo), colorectal cancer HCT116; details: Homo sapiens, HCT-116, 72 h
Protocol: as §1, §2, §3

[5] = test system: Wnt signaling; assay: Wnt signaling reporter assay (Super8XTOPFlash luciferase) in LRP6-expressing HEK293 cells; details: 24 h treatment, luciferase normalized to β-galactosidase; for IC50: Homo sapiens, read-out: IC50 (effects on Wnt signaling)
Protocol: HEK293 cells were plated into 24-well plates. After overnight culture, the cells were transiently transfected with 0.06 μg of the Super8XTOPFlash luciferase construct, 0.06 μg of β-galactosidase-expressing vector, and 0.06 μg of pCS-Myc-hLRP6 or control vector. After 24 h incubation, cells were treated with each individual compound in triplicate for 24 h. Cells were then lysed, and the luciferase and β-galactosidase activities were determined by the luciferase assay system (Promega) and β-galactosidase assay system (Promega), respectively. The luciferase activity was normalized to the β-galactosidase activity.
Table 2 below illustrates the effects of the disclosed compounds on Wnt signaling in LRP6-expressing HEK293 cells.

[6] = Suit-2, CSC enriching serum free medium, non-adherent plates, read-out: Cell viability (IC50) Suit-2 CSC
[7] = Suit-2, adherent, complete medium 10% FBS, read-out: Cell viability (IC50) Suit-2 Adherent
[8] = HT-29, adherent, read-out: Cell viability (IC50) HT-29 Adherent
[9] = S2VP10, CSC enriching serum free medium, non-adherent plates, read-out: Cell viability (IC50) S2VP10 CSC
[10] = S2VP10, adherent, complete medium 10% FBS, read-out: Cell viability (IC50) S2VP10 Adherent
[11] = HCT116, CSC conditions, read-out: Cell viability (IC50) HCT116 CSC
[12] = HCT116, adherent, read-out: Cell viability (IC50) HCT116 Adherent
[13] = HT-29, CSC conditions, read-out: Cell viability (IC50) HT-29 CSC

Row | Structure (SMILES) | IC50 [1, 6] [nM] | IC50 [1, 7] [nM] | IC50 [2, 8] [nM] | IC50 [3, 9] [nM] | IC50 [3, 10] [nM] | IC50 [4, 11] [nM] | IC50 [4, 12] [nM] | IC50 [5] [nM] | IC50 [2, 13] [nM] | IC50 (effects on Wnt signaling) [5]
1 | CN1CCN(c2ccc(-c3nc4cc(Cl)c(Cl)cc4[nH]3)cc2F)CC1 [Compound 27, 5,6-dichloro-2-(3-fluoro-4-(4-methylpiperazin-1-yl)phenyl)-1H-benzo[d]imidazole] | 1990 | 8920 | 140 | 2910 | 8310 | 1760 | 830 | 4.67 |  | 
2 | c1cc2[nH]c(-c3ccc(N4CCCC4)cc3)nc2cn1 [Compound 28, 2-(4-(pyrrolidin-1-yl)phenyl)-1H-imidazo[4,5-c]pyridine] | 150 | 160 | 60 | 80 | 110 | 80 | 110 | 10400 | 50 | 
3 | Fc1cc2[nH]c(-c3ccc(N4CCCC4)cc3)nc2cc1Cl [Compound 31, 5-chloro-6-fluoro-2-(4-(pyrrolidin-1-yl)phenyl)-1H-benzo[d]imidazole] | 940 | 950 | 590 | 750 | 510 | 160 | 580 | 330 | 40 | 
4 | FC(F)(F)c1cc2nc(-c3ccc(N4CCCC4)cc3)[nH]c2cc1Cl [Compound 32, 6-chloro-2-(4-(pyrrolidin-1-yl)phenyl)-5-(trifluoromethyl)-1H-benzo[d]imidazole] | 1100 | 3870 |  | 600 | 5200 |  |  |  |  | Inactive
5 | Clc1cc2nc(-c3ccc(N4CCCCC4)cc3)[nH]c2nc1Cl [Compound 33, 5,6-dichloro-2-(4-(piperidin-1-yl)phenyl)-3H-imidazo[4,5-b]pyridine] | > 10000 | > 10000 |  | > 10000 | > 10000 |  |  |  |  | Inactive
6 | Clc1cc2nc(-c3ccc(N4CCCC4)cc3)[nH]c2nc1Cl [Compound 34, 5,6-dichloro-2-(4-(pyrrolidin-1-yl)phenyl)-3H-imidazo[4,5-b]pyridine] | > 10000 | > 10000 |  | > 10000 | > 10000 |  |  |  |  | Inactive
7 | FC(F)(F)c1cc(Cl)c2[nH]c(-c3ccc(N4CCCC4)cc3)nc2c1 [Compound 35, 7-chloro-2-(4-(pyrrolidin-1-yl)phenyl)-5-(trifluoromethyl)-1H-benzo[d]imidazole] | 240 | 9060 |  | 150 | > 10000 |  |  |  |  | Inactive
8 | FC(F)(F)c1cc(Cl)c2[nH]c(-c3ccc(N4CCCCC4)cc3)nc2c1 [Compound 36, 7-chloro-2-(4-(piperidin-1-yl)phenyl)-5-(trifluoromethyl)-1H-benzo[d]imidazole] | 2530 | 8660 |  | 2950 | > 10000 |  |  |  |  | Inactive
9 | FC(F)(F)c1cc2nc(-c3ccc(N4CCCCC4)cc3)[nH]c2cc1Cl [Compound 37, 6-chloro-2-(4-(piperidin-1-yl)phenyl)-5-(trifluoromethyl)-1H-benzo[d]imidazole] | 550 | 5330 |  |  | 9250 |  |  |  |  | Inactive
